{"source": "patent US20150104392A1", "about": "“COMPOSITIONS, BIOMARKERS AND THEIR USE IN THE TREATMENT OF CANCER” (Aptose Biosciences Inc., priority 2013, published 2015)", "key": {"[1]": {"assay": "Pharmacokinetics, serum level after i.v. bolus", "assay_type": "in vivo", "conditions": "CD-1 nude mice; i.v. bolus 1, 5 and 15 mg/kg", "experimental": "To study the pharmacokinetic (PK) […], CD-1 nude mice were treated by i.v. bolus injections of LOR-253HCl at 1, 5, and 15 mg/kg. The serum level of LOR-253 was measured."}, "[2]": {"system": "advanced or metastatic solid tumours", "assay": "Open-label phase 1 study in patients with advanced or metastatic solid tumours", "assay_type": "in vivo, human", "experimental": "Phase I: This was an open-label, phase 1 study to determine the maximum tolerated dose (MTD) or appropriate target dose if MTD not reached to identify the recommended phase 2 dose of LOR-253HCl in patients with advanced or metastatic solid tumours. In the first set of doses, LOR-253HCl was given in ascending doses until the maximum administered dose or appropriate target dose is reached. In the other set of doses, LOR-253HCl was given in ascending doses starting from 20 mg/m^2 until the maximum administered dose or appropriate target dose is reached. Patient as treated on LOR-253HCl for 2 cycles for the evaluation. • Other Name: No other names are used. • Study Type: Interventional • Study Design: Endpoint Classification: Safety Study • Intervention Model: Single Group Assignment • Masking: Open Label • Primary Purpose: Treatment • Official Title: Open-Label, Phase 1 Study of LOR-253HCl in Patients With Advanced or Metastatic Solid Tumours\n• To determine the maximum tolerated dose (MTD) or appropriate target dose if MTD not reached to identify the recommended phase 2 dose of LOR-253HCl in patients with advanced or metastatic solid tumours. [Time Frame: 8 weeks]\n• To characterize the safety profile of LOR-253HCl when administered to patients with advanced or metastatic solid tumours. [Time Frame: 8 weeks]\n• 1. Male or female 18 years of age or older. • 2. Histologically confirmed diagnosis of solid tumor for which no effective therapy is available or that is unresponsive to conventional therapy. • 3. Meet laboratory parameter requirements at study entry.\n• 1. Chemotherapy, radiotherapy, biologic therapy, immunotherapy or any other investigational drugs within 21 days of beginning study treatment with LOR-253HCl. • 2. A hematologic malignancy. • 3. A history of brain or other central nervous system metastases. • 4. Have a presence of a significant infection. • 5. Clinically significant autoimmune disease. • 6. Uncontrolled intercurrent illness. • 7. With iron or copper overload syndromes. • 8. Pregnancy or breast feeding."}, "Kasumi-1 xenograft": {"system": "Kasumi-1 xenograft", "assay": "Kasumi-1 AML xenograft model", "assay_type": "in vivo", "conditions": "30 mg/kg (15 mg/kg twice per day) i.v., two consecutive days per week, four weeks", "experimental": "The anti-tumor activity of LOR-253HCl was evaluated in another in vivo animal model of human AML. The human AML cell line Kasumi-1 was implanted subcutaneously into athymic nude mice. Some tumor-bearing mice were treated with LOR-253HCl at 30 mg/kg (15 mg/kg twice per day) for two consecutive days per week for four weeks (the “LOR-253 treatment group”). LOR-253 was administered by intravenous (i.v.) bolus injection as the hydrochloric salt form (LOR-253-HCl) formulated in 20% Polyethylene Glycol 400, 10% Propylene Glycol, and 10% Solutol HS in 60% water.\nThe major endpoint was to observe for tumor growth inhibition after treatment with LOR-253HCl and compare the anti-tumor effects of different dosing schedules. Tumor sizes were measured three times per week from day 10 after the tumor cell inoculation. Tumors were measured in three dimensions using calipers and the volume was expressed in millimeters cubed using the formula: V=0.5 a×b×c, where a, b, and c are the length, width, and height of the tumor, respectively. Mean tumor volumes+/−standard error (SE) were calculated from each measurement and then plotted in a standard graph to compare the anti-tumor efficacy of drug treatment to that of control (FIG. 20). Toxicity was assessed by clinical observations and by measurement of mouse body weight in grams twice per week over the course of the study. Mean body weights were calculated from each measurement and then plotted to compare body weight changes in the drug treatment group to that of control (FIG. 21)."}, "HL-60 xenograft": {"system": "HL-60 xenograft", "assay": "HL-60 AML xenograft model", "assay_type": "in vivo, athymic nude mice", "conditions": "3 cycles", "experimental": "The human AML cell line HL-60 was implanted subcutaneously into athymic nude mice. Tumor-bearing mice were treated with LOR-253HCl alone or in combination with azacitidine, with azacitidine alone, or with a negative control vehicle. The detailed treatment conditions are as follows. • Group 1: Negative control group. LOR-253HCl control vehicle, 2×/day, 3 cycles of 2 consecutive days, 5 days between cycles, i.v., plus 1% D-mannitol every four days by s.c. injection • Group 2: Azacitidine (in 1% D-mannitol) at 10 mg/kg 1× on days 1, 4, 8, 11, 15 and 18 by subcutaneous (s.c.) injection • Group 3: LOR-253HCl at 15 mg/kg bid for 3 cycles, each cycle is 2 consecutive days of dosing per week with 5 days of non-dosing, i.v., n=9 (2T-5B) • Group 4: LOR-253HCl at 15 mg/kg 2×/day (bid) for 3 cycles, each cycle is 1 day of dosing per week with 6 days of non-dosing, i.v., n=9 (1T-6B) • Group 5: Combination of LOR-253 (2T-5B) and azacitidine. LOR-253HCl at 15 mg/kg bid for 3 cycles, each cycle is 2 consecutive days of dosing per week with 5 days of non-dosing, i.v., n=9 (2T-5B) plus azacitidine at 10 mg/kg 1× every four days by s.c. injection • Group 6: Combination of LOR-253 (1T-6B) and azacitidine. […]\nTumor sizes were measured three times per week."}, "KG-1 xenograft": {"system": "KG-1 xenograft", "assay": "KG-1 AML xenograft model", "assay_type": "in vivo, mice", "conditions": "15 mg/kg iv, bid, 2T/wk; single agent", "experimental": "The anti-tumor activity of LOR-253HCl was evaluated in yet another in vivo animal model of human AML. Xenograft model mice for AML cell line KG-1 was generated with the same method as in Examples 9 and 10, and were treated with LOR-253HCl or control according to the following regime.\nLOR-253-15 mg/kg-iv, bid, 2T/wk-Day 1"}, "THP-1 xenograft": {"system": "THP-1 xenograft", "assay": "THP-1 AML xenograft model", "assay_type": "in vivo, mice", "conditions": "Group 2: single agent, i.v. Days 1, 2, 8, 9, 15, 16; IP Days 22-25, 29, 30", "experimental": "The anti-tumor activity of LOR-253HCl, as a single agent and in combination with azacitidine, was evaluated in yet another in vivo animal model of human AML. Xenograft model mice for AML cell line THP-1 was generated with the same method as in Examples 9 and 10, and were treated with LOR-253HCl alone or in combination with azacitidine, with azacitidine alone, or with a negative control vehicle, and tumor sizes were measured as described in Examples 9 and 10. The detailed treatment conditions are shown as follows, and the results are shown in FIG. 26. • Group 1 Control: received i.v. treatments with LOR-253 control vehicle (CV) on Days 1, 2, 8, 9, 15 &16; received subcutaneous (SC) treatments with Azacitidine control vehicle on Days 1, 4, 8, 11, 15, 18, 22, 25, 29 &32; and received intraperitoneal (IP) treatments with LOR-253-CV on Days 22, 23, 24, 25, 29&30. • Group-2-LOR-253: received i.v. treatments on Days 1, 2, 8, 9, 15 &16; received IP treatments on Days 22, 23, 24, 25, 29&30 • Group-3-Azacitidine: received SC treatments on Days 1, 4, 8, 11, 15, 18, 22, 25, 29 &32. • Group-4-Combination: received i.v. treatments with LOR-253 on Days 1, 2, 8, 9, 15 &16; received IP treatments with LOR-253 on Days 22, 23, 24 &25; and received SC-treatment with Azacitidine on Days 1, 4, 8, 11, 15, 18, 22 &25"}}, "data": [{"smiles": "Cc1[nH]c2ccc(F)cc2c1-c1nc2c3cccnc3c3ncccc3c2[nH]1", "note": "[LOR-253HCl]", "values": [{"measurement": "serum level of LOR-253", "setting": "[1]", "value": "dose related increase"}, {"measurement": "Most common AE and SAE", "setting": "[2]; N=27 patients, 7 dose levels", "value": "Fatigue and 1 case of reversible hypophosphatemia"}, {"measurement": "Safety profile", "setting": "[2]; N=27 patients, 7 dose levels", "value": "Excellent Safety Profile"}, {"measurement": "tumor response in individual patient (FIG. 12)", "setting": "[2]; patient with NSCLC (poorly differentiated adenocarcinoma), extensive metastases, refractory", "value": "Tumor shrinkage"}, {"measurement": "RECIST partial response", "setting": "[2]; patients with advanced solid tumors", "value": "No RECIST PR"}, {"measurement": "Stable Disease, evaluable patients", "setting": "[2]; patients with advanced solid tumors, dose-escalating, 7 dose levels", "value": 41, "unit": "%"}, {"measurement": "body weight", "setting": "Kasumi-1 xenograft", "value": "did not show body weight loss"}, {"measurement": "overt signs of toxicity", "setting": "Kasumi-1 xenograft", "value": "did not show other overt signs of toxicity"}, {"measurement": "tumor growth inhibition vs vehicle control", "setting": "Kasumi-1 xenograft; p=0.028 Student's t-test", "value": "statistically significantly increased inhibitory effect"}, {"measurement": "tumor growth inhibition", "setting": "HL-60 xenograft; Group 3: 15 mg/kg bid i.v., two consecutive days per week (2T-5B)", "value": "inhibited growth of HL-60 tumors to approximately the same extent as or slightly more than azacitidine alone"}, {"measurement": "tumor growth inhibition", "setting": "HL-60 xenograft; Group 4: 15 mg/kg bid i.v., one day per week (1T-6B)", "value": "inhibited growth of HL-60 tumors to approximately the same extent as or slightly more than azacitidine alone"}, {"measurement": "tumor growth inhibition", "setting": "KG-1 xenograft", "value": "significant tumor growth inhibition"}, {"measurement": "tumor growth inhibition", "setting": "THP-1 xenograft", "value": "inhibited growth of THP-1 tumors to about the same extent as or slightly more than azacitidine alone"}]}]}
